Data published in US8404858B2, “Agent for regeneration and/or protection of nerves” (Ono Pharmaceutical Co., Ltd., priority 2005, dated 2013).

What was measured:
rat EP2 receptor = biological target: T1, rat EP2 receptor (Rattus norvegicus, UniProt Q62928); assay: Measurement of EP2 agonist activity (intracellular cyclic AMP concentration, cAMP assay); assay type: cell-based; settings: rEP2-CHO cell, maximum = PGE2 (1 μmol/l)
T1 construct: expressed in transfected cells; host or cells: CHO cells (rEP2-CHO)
T1 sequence (Q62928 whole entry): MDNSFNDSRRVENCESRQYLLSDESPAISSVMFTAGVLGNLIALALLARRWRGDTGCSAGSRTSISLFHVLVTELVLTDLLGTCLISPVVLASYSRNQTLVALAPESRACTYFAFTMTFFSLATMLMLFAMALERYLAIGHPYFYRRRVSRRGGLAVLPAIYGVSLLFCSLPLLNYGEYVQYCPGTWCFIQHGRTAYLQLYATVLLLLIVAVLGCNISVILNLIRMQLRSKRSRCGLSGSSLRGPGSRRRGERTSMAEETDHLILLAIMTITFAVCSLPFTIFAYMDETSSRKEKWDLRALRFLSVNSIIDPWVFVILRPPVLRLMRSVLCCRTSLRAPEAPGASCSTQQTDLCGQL
Procedure: (1-1) Measurement of EP2 Agonist Activity (Measurement of Intracellular Cyclic AMP (cAMP) Concentration (cAMP Assay))
(§1) A rat EP2 receptor forced expression cell (rEP2-CHO cell) was incubated in an incubator (5% CO2) of 37° C. using Minimum Essential Medium Eagle (Sigma, M4526) to which 10% fetal bovine serum (FBS, JRH) and 1/100 total volume of Penicillin Streptomycin Glutamine (GIBCO, 10378-016) had been added. The cells which reached confluent were exfoliated using trypsin and suspended in a medium (MEM medium containing 10% FBS) to a density of 2.0×10^5 cells per ml. The thus prepared suspension was seeded into a 24 well plate to be 1.0×10^5 cells per well portions and incubated for 48 hours. […]
The frozen sample was thawed and transferred to a micro centrifugation tube to be centrifuged (15,000 rpm, 4° C., 3 minutes). […] Using the upper layer as a sample, cAMP concentration was measured by a cAMP EIA system (cAMP Enzyme Immunoassay System, Amersham Biosciences).
Activity strengths of respective compounds were compared by calculating their EC50 values. The EC50 value was calculated by regarding changed amount of the cAMP concentration when PGE2 (1 μmol/l) was added instead of each compound as the maximum changed amount, and defining the value which gives half of the changed amount as the concentration of each compound.

rat EP3 receptor = biological target: T2, rat EP3 receptor (Rattus norvegicus, UniProt P34980); assay: Measurement of EP3 agonist activity (intracellular calcium concentration real time imaging, Ca2+ assay); assay type: cell-based; settings: rEP3-CHO cell, maximum = PGE2 (100 nmol/L)
T2 construct: expressed in transfected cells; host or cells: CHO cells (rEP3-CHO)
T2 sequence (P34980 1-365): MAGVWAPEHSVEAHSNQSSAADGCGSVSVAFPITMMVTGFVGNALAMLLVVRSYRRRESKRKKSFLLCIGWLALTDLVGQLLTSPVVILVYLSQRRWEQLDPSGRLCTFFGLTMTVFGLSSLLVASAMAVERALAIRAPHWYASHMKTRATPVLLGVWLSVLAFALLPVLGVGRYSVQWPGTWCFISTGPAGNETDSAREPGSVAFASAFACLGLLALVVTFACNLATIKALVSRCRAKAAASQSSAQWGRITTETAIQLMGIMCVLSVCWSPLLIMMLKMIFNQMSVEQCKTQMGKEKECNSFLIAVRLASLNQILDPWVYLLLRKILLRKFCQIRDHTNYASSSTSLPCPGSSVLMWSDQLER
Procedure: (1-2) Measurement of EP3 Agonist Activity (Intracellular Calcium Concentration Real Time Imaging (Ca^2+ Assay))
as §1, with “EP3” for “EP2”, “(rEP3-CHO” for “(rEP2-CHO”, “1/100 of” for “1/100”, “1.0×10^5” for “2.0×10^5”, “ml.” for “ml. The thus prepared suspension was seeded into a 24 well plate to be 1.0×10^5 cells per well portions and incubated for 48 hours.”
After the incubation, the culture fluid was removed from each well of the plate and a Fura2 loading buffer (10% FBS-containing MEM medium supplemented with Fura2-AM (5 μmol/L), HEPES (10 mmol/L), probenecid (2.5 mmol/L) and indometacin (20 μmol/L)) was added thereto, followed by incubating in an incubator (5% CO2) of 37° C. […] Measurement of the fluorescence intensity was continuously carried out for 3 minutes after addition of the compound.
Activity intensity of each compound was compared by calculating their EC50 values. The EC50 value was calculated by regarding mean of the changed amount of calcium concentration when PGE2 (100 nmol/L) was added instead of each compound as the maximum changed amount, and defining the value which gives half of the changed amount as the concentration of each compound. […]

rat = assay: Measurement of the cauda equina blood flow and the blood pressure; assay type: in vivo; settings: urethane-anesthetized rat, continuous infusion through caudal vein for 30 minutes
Procedure: (3) The Measurement of the Cauda Equina Blood Flow and the Blood Pressure
1.5 g/kg of urethane was administered intraperitoneally to the rat to be anesthetized, and the catheter (for measurement of blood pressure and ventricular rate) was placed in left carotid artery in supine position. The rat was reversed to prone position and the lumbar part was incised in the median line. The laminectomy was given to the fifth lumbar vertebra and the spinal cord (cauda equina) was exposed. The cauda equina blood flow was measured by the laser-Doppler flowmetry (OMEGAFLD FLO-NI and ADVANCE LASER FLOWMETER ALF21N, OMEGA WAVE Inc.) through a noncontact probe (ST-N type, OMEGA WAVE Inc.) and recorded with LINEARCORDER (Graphtech). The systemic blood pressure and the ventricular rate were measured from a left carotid artery with amplifier for the pressure measurement (GOULD) through a pressure transducer and recorded with LINEARCORDER (Graphtech). After confirming each parameter of blood pressure, ventricular rate and blood flow was stabilized, the test compound was administrated by continuous infusion through the winged needle placed in caudal vein for 30 minutes. It observed until 30 minutes after the administration and the increase rate of the cauda equina blood flow was calculated.
The increase rate of the cauda equina blood flow (%)=(B−A)/A×100 […]

cauda equina nerve = assay: Measurement of cauda equina nerve repair acceleration activity (rat cauda equina nerve compression gait disturbance model); assay type: in vivo; settings: intravenous continuous administration 2 hours×twice/day, 2 weeks, in comparison with the physiological saline administration group
Procedure: (2) Measurement of Cauda Equina Nerve Repair Acceleration Activity
A rat cauda equina nerve compression gait disturbance model was prepared by the method of Takenobu et al. (J. Neurosci. Methods, 104 (2), 191-198, 2002). Namely, a rat was anesthetized with pentobarbital sodium and, after shaving its dorsal region, fixed at abdominal position. After disinfection of the dorsal region with chlorhexidine gluconate (5% hibitane liquid; Sumitomo Pharmaceuticals), the waist was median-incised to expose the spinal column. After excision of the fifth lumbar gemmule, a silicon rubber of 1×4×1.25 mm (height×length×width) was inserted into the fourth lumbar and sixth lumbar spinal canals from a small hole on the vertebral arch bored by a mini drill. For the purpose of avoiding infections, benzylpenicillin potassium (Crystalline Penicillin G Potassium Meiji; Meiji Seika Kaisha, Ltd.) was added dropwise to the incised part and intramuscularly injected into the thigh parts. The muscle and skin of the incised part were stitched with a surgical suture, and Iodine Tincture was applied to the stitched part. Animals of the sham operation group were prepared in accordance with the aforementioned method, but the insertion of silicon rubber was not carried out. […]

Compound	EC50 (rat EP2 receptor) [nM]	EC50 (rat EP3 receptor) [nM]	decrease of the blood pressure (rat; left carotid artery) [mmHg]	increase rate of the cauda equina blood flow (rat; observed until 30 minutes after) [%]	appearance rate of regeneration nerve fascicles (cauda equina nerve)
C[C@@](O)(C/C=C/[C@H]1CCC(=O)[C@@H]1CCSc1nc(C(=O)O)cs1)CC1CCCCC1 [compound 17, 2-[(2-{(1R,2R)-2-[(1E,4S)-5-cyclohexyl-4-hydroxy-4-methyl-1-penten-1-yl]-5-oxocyclopentyl}ethyl)thio]-1,3-thiazole-4-carboxylic acid]	11	31	5	33	
O=C(O)c1csc(SCCN2C(=O)OC[C@@H]2/C=C/[C@@H](O)C2(CCCCF)CCC2)n1 [compound A, 2-{[2-((4S)-4-{(1E,3R)-3-[1-(4-fluorobutyl)cyclobutyl]-3-hydroxy-1-propenyl}-2-oxo-1,3-oxazolidin-3-yl)ethyl]sulfanyl}-1,3-thiazole-4-carboxylic acid]	16	99			significantly high appearance rate of regeneration nerve fascicles
